Earlier results, collected in patent publication US12239727B2, “Compositions for use in the treatment of photosensitivity” (RepoCeuticals A/S, priority 2018, dated 2025).

Conditions: room temperature, solvent DMSO

solubility in DMSO: ≥ 232 mg/mL
Structure (SMILES): COc1ccc2[nH]cc(CCNC(C)=O)c2c1 [melatonin, N-acetyl-5-methoxytryptamine]
